Consider 3 compounds from PMC9652372, “Glycolytic flux control by drugging phosphoglycolate phosphatase” (Nature Communications, 2022).

One series concerns the target T1, murine PGP-WT (Mus musculus, UniProt Q8CHP8).
T1 construct: His6 (N, cleaved yes); made in house; host or cells: Escherichia coli BL21 (DE3), pETM11, co-expressed with groES-groEL-tig
T1 sequence (Q8CHP8 1-321): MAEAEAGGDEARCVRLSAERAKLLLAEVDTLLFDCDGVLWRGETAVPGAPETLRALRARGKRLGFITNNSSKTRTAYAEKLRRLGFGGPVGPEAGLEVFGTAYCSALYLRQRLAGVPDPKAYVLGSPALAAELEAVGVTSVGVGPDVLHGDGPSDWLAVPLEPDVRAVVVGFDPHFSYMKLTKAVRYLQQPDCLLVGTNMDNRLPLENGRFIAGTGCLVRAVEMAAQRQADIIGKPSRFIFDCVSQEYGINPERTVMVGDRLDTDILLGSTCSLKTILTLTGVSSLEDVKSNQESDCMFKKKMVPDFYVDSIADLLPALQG
As to the kind of experiment: Isothermal titration calorimetry, PGP-WT. The class given is binding. To be noted: ITC; for Kd: murine PGP. The method, then:
Purified murine PGP-WT or PGP-P127E was dialyzed overnight against ITC buffer (30 mM HEPES, 30 mM NaCl, 5 mM MgCl2, 1 mM tris(2-carboxyethyl)phosphine/TCEP; pH 7.5). All calorimetric measurements were performed at 25 °C on an ITC200 microcalorimeter (GE Healthcare). Experiments were conducted with a fixed concentration of 2% DMSO. […] To reduce the effects of ligand leakage from the syringe during baseline equilibration, the heat release of a single 1.2 μL injection was recorded prior to the actual titration experiment, and discarded during data analysis with Nitpic 2.0.7[45]. To determine background heats of dilution, control experiments of ligand into buffer, buffer into protein and buffer into buffer titrations were performed.

In a further series the target is T2, NT5C1A (Homo sapiens, UniProt Q9BXI3).
T2 construct: purchased Origene #TP324617
T2 sequence (Q9BXI3 1-368): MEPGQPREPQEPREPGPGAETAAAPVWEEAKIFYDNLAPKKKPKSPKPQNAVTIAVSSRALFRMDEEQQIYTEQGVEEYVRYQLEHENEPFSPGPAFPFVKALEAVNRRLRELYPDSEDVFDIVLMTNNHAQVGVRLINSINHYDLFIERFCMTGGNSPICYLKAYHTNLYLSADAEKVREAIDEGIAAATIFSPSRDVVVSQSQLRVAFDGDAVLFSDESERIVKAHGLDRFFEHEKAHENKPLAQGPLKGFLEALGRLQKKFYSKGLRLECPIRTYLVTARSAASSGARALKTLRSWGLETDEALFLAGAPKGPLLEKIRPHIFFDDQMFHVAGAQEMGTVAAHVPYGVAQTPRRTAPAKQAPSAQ
As to the kind of experiment: In vitro phosphatase activity assay, NT5C1A (AMP). The series is classed as biochemical. To be noted: DMSO control = 100, read-out: NT5C1A activity on AMP in presence of CP relative to DMSO controls; for remaining activity at 50 µM: CP log[M] -4.30103; for remaining activity at 40 µM: CP log[M] -4.39794; for remaining activity at 30 µM: CP log[M] -4.52288; for remaining activity at 25 µM: CP log[M] -4.60206; for remaining activity at 20 µM: CP log[M] -4.69897; for remaining activity at 15 µM: CP log[M] -4.82391; for remaining activity at 10 µM: CP log[M] -5; for remaining activity at 5 µM: CP log[M] -5.30103; for remaining activity at […]: CP log[M] -5.60206.

A further series deals with T3, murine PGP^C297S (Mus musculus, UniProt Q8CHP8, C297S).
T3 construct: His6 (N, cleaved yes); made in house; host or cells: Escherichia coli BL21 (DE3)
T3 sequence (Q8CHP8 1-321 C297S): T1 sequence (Q8CHP8 1-321) with C297S
As to the kind of experiment: IC50 determination, PGP^C297S, PG dephosphorylation. The class given is biochemical. The method, then:
. […] Data were analyzed with GraphPad Prism 7.04.
Supplementary Figure 3 (related to Figure 2): Characterization of the homodimeric PGP variant PGPC297S. (a) In vitro phosphatase activity of purified murine PGPC297S in comparison to purified murine PGPWT, using 2- phosphoglycolate (PG) as substrate. (b) Determ ination of […]
CP1. PG dephosphorylation was quantified using malachite green. All data in (a) and (b) are mean values ± S.E.M of n=3 independent experiments. Error bars not shown are hidden by the symbols. (c) PGP self-association in the absence or presence of CP1. Size- exclusion chromatography (SEC) of purified, recombinant murine PGP-WT in comparison to PGP-C297 […]
(1 picture or pasted object on this page, not shown here)

Series [1] is described as follows: LC-MS quantification of intracellular CP1. To be noted: for Abs. CP1 / Abs. Peak Area, CP1 (neg.): PGP-WT, P5. The series is classed as in vitro ADME, human.
Method: Cells (~1 million cells/dish) were rinsed in PBS (37 °C), trypsinized, sedimented at 300 × g, 4 °C for 4 min, washed once in PBS (4 °C), and sedimented again at 300 × g, 4 °C for 4 min. Cell pellets were snap-frozen in liquid nitrogen.
Water-soluble metabolites were extracted with 50 µl ice-cold MeOH/H2O (80/20, v/v) containing 0.01 μM lamivudine. After centrifugation of the resulting homogenates, supernatants were transferred to a RP18 SPE (50 mg/1 mL tubes; Phenomenex) that had been activated with 0.5 mL CH3CN and conditioned with 0.5 mL of MeOH/H2O (80/20, v/v). The eluate of the RP18 SPE-column was evaporated in a SpeedVac (Savant, Thermo Fisher Scientific). Dry sample extracts were redissolved in 75 μL 5 mM NH4OAc in CH3CN/H2O (50/50, v/v). Twenty µL of supernatant were transferred to LC-vials. Metabolites were analyzed by LC-MS using the following settings: 3 μL of each sample was applied to an XBridge Premier BEH Amide (2.5 μm particles, 100 × 2.1 mm) UPLC-column (Waters). Metabolites were separated with Solvent A, consisting of 5 mM NH4OAc in CH3CN/H2O (40/60, v/v) and solvent B consisting of 5 mM NH4OAc in CH3CN/H2O (95/5, v/v) at a flow rate of 200 µL/min at 45 °C by LC using a DIONEX Ultimate 3000 UHPLC system (Thermo Fisher Scientific). A linear gradient starting after 2 min with 100% solvent B decreasing to 10% solvent B within 23 min, followed by 16 min 10% solvent B and a linear increase to 100% solvent B in 2 min was applied. Recalibration of the column was achieved by a 7 min prerun with 100% solvent B before each injection. […] All MS-analyses were performed on a high-resolution Q Exactive mass spectrometer equipped with a HESI probe (Thermo Fisher Scientific) in alternating positive- and negative full MS mode with a scan range of 69.0–1000 m/z at 70 K resolution and the following ESI source parameters: Sheath gas: 30, auxiliary gas: 1, sweep gas: 0, aux gas heater temperature: 120 °C, spray voltage: 3 kV, capillary temperature: 320 °C, S-lens RF level: 50. XIC generation and signal quantitation was performed using TraceFinder v3.3 (Thermo Fisher Scientific) integrating peaks which corresponded to the calculated monoisotopic metabolite masses (MIM + /− H + ± 3 mMU). Analyses of PGP-WT and PGP-KO cells were performed in n = 5 biologically independent experiments.
The target in a further series is T4, murine PGP (Mus musculus, UniProt Q8CHP8).
T4 sequence (Q8CHP8 1-321): T1 sequence (Q8CHP8 1-321)
As to the kind of experiment: IC50 determination, murine PGP, glycerol 3-phosphate (G3P) dephosphorylation (EnzChek).

Numbering of substitutions follows the chain as printed. Several values for one entry are separate records, joined by “and”; a condition that tells them apart may be missing. Equal entries are not always repeated.

Method for NT5C1A: Purified human NT5C1A (NM_032526, #TP324617) and purified human PHOSPHO1 (NM_178500, #TP314434) were from Origene. […] Data were analyzed with GraphPad Prism 7.04. […] Data are mean values ± S.E.M. of n=3 independent experiments.

For the compound `O=C(O)c1cc(Nc2ccccc2C(=O)O)nc(Nc2ccccc2C(=O)O)n1` [CP3], the Kd (in general, the free concentration of one partner at which half of the binding sites on the other are occupied at equilibrium, for simple one-to-one binding) at murine PGP-WT (25 °C, mean ± S.E.M., n = 3) was 430 nM. At murine PGP-WT (single replicates), the Kd was 500 nM and 320 nM and 460 nM; the dG is -8.598 kcal/mol and -8.862 kcal/mol and -8.651 kcal/mol; the dH is -6.466 kcal/mol and -5.835 kcal/mol and -6.568 kcal/mol; the dS is 7.151 cal/Mol*K and 10.151 cal/Mol*K and 6.986 cal/Mol*K.
Take `COc1ccc(C(=O)Nc2ccc(Cc3ccc(NC(=O)c4ccc(OC)c(OC)c4)c(C(=O)O)c3)cc2C(=O)O)cc1OC` [CP2]: at NT5C1A, the remaining activity at 50 µM amounted to 11.9%, the remaining activity at 40 µM was 20.5%, the remaining activity at 30 µM came to 33.1% and the remaining activity at 25 µM is 45.1%. At NT5C1A, the remaining activity at 20 µM came out at 62.1%, the remaining activity at 15 µM was determined as 69%, the remaining activity at 10 µM was determined as 74.2% and the remaining activity at 5 µM stood at 83.9%. For the same compound, the remaining activity at […] on NT5C1A is 91.1%.
As to `O=C(Nc1ccccc1C(=O)O)c1ccc(Oc2ccc(C(=O)Nc3ccccc3C(=O)O)cc2)cc1` [CP1], the equilibrium dissociation constant (Kd) on murine PGP-WT (25 °C, mean ± S.E.M., n = 3) worked out at 780 nM. In addition, at murine PGP-WT (single replicates), the Kd was 850 nM and 790 nM and 710 nM; the dG was -8.282 kcal/mol and -8.325 kcal/mol and -8.393 kcal/mol; the dH was -5.583 kcal/mol and -4.903 kcal/mol and -5.696 kcal/mol; the dS was 9.052 cal/Mol*K and 11.478 cal/Mol*K and 9.044 cal/Mol*K. In addition, the remaining activity at 80 µM on NT5C1A (CP log[M] -4.09691) stood at 12.2%. Moreover, on NT5C1A (CP log[M] -4.22185), the remaining activity at 60 µM amounted to 13.1%. For the same compound, on NT5C1A, the remaining activity at 50 µM was 13.1%, the remaining activity at 40 µM was determined as 16.3%, the remaining activity at 30 µM stood at 38.9% and the remaining activity at 25 µM is 50.7%. At NT5C1A, the remaining activity at 20 µM was found to be 57%, the remaining activity at 15 µM was determined as 83.3%, the remaining activity at 10 µM was 90.5% and the remaining activity at 5 µM was 104%. Also, the remaining activity at […] at NT5C1A stood at 86.9%. Moreover, the 50% inhibitory concentration (IC50) (in general, the concentration needed to halve the response being measured) on murine PGP^C297S (PGP^C297S, substrate PG) is approximately 250 nM. In addition, at murine PGP^C297S (read-out: PGP-C297S activity in presence of CP1 relative to DMSO control, CP1 log[M] -5.60206), the remaining activity at […] is 6.31%. Moreover, the remaining activity at 1.25 µM at murine PGP^C297S (read-out: PGP-C297S activity in presence of CP1 relative to DMSO control, CP1 log[M] -5.90309) is 12.6%. Besides, the remaining activity at 0.3125 µM on murine PGP^C297S (read-out: PGP-C297S activity in presence of CP1 relative to DMSO control, CP1 log[M] -6.50515) is 44.1%. Further, the remaining activity at 0.15625 µM at murine PGP^C297S (read-out: PGP-C297S activity in presence of CP1 relative to DMSO control, CP1 log[M] -6.80618) amounted to 56.8%. In addition, the remaining activity at 0.078125 µM on murine PGP^C297S (read-out: PGP-C297S activity in presence of CP1 relative to DMSO control, CP1 log[M] -7.10721) was found to be 72.1%. The remaining activity at 0.03906 µM on murine PGP^C297S (read-out: PGP-C297S activity in presence of CP1 relative to DMSO control, CP1 log[M] -7.40824) amounted to 75.7%. For the same compound, the remaining activity at 0.01953 µM on murine PGP^C297S (read-out: PGP-C297S activity in presence of CP1 relative to DMSO control, CP1 log[M] -7.70927) is 90.1%. Also, the “less CP1 detected than expected” value in series [1] (100 µM CP1) was 39%. Further, in series [1] (3h 33 uM CP1), the “Abs. CP1” value is 0.136 pmol and 0.115 pmol and 0.127 pmol; the “Abs. Peak Area, CP1 (neg.)” value is 1166078 and 1127449 and 1204353. In series [1] (7h 100 uM CP1), the “Abs. CP1” value is 0.229 pmol and 0.231 pmol and 0.241 pmol; the “Abs. Peak Area, CP1 (neg.)” value was 2322474 and 2574644 and 2821728. The compound further had an IC50 on murine PGP of 1040 ± 80 nM. At murine PGP (read-out: M.m PGP on G3P, activity, control = 100, CP1 log[M] -5.09691), the remaining activity at 8 µM was found to be 13.8%. For the same compound, on murine PGP (read-out: M.m PGP on G3P, activity, control = 100, CP1 log[M] -5.39794), the remaining activity at 4 µM came to 19.5%. The remaining activity at 2 µM on murine PGP (read-out: M.m PGP on G3P, activity, control = 100, CP1 log[M] -5.69897) is 32.5%. Moreover, the remaining activity at 1 µM at murine PGP (read-out: M.m PGP on G3P, activity, control = 100, CP1 log[M] -6) was 53.8%. The remaining activity at 0.5 µM at murine PGP (read-out: M.m PGP on G3P, activity, control = 100, CP1 log[M] -6.30103) was 80%. Also, the remaining activity at […] on murine PGP (read-out: M.m PGP on G3P, activity, control = 100, CP1 log[M] -6.60206) amounted to 91.2%. Besides, on murine PGP (read-out: M.m PGP on G3P, activity, control = 100, CP1 log[M] -6.90309), the remaining activity at 0.125 µM turned out to be 96.2%. Further, the remaining activity at 0.0625 µM on murine PGP (read-out: M.m PGP on G3P, activity, control = 100, CP1 log[M] -7.20412) worked out at 98.8%. For the same compound, the remaining activity at 0.03125 µM on murine PGP (read-out: M.m PGP on G3P, activity, control = 100, CP1 log[M] -7.50515) worked out at 91.2%.
